We go through 39 compounds from article PMC7619385 (ACS infectious diseases, 2025).

Structures can show the parent of a compound that is named as a salt. Where two headings read alike, the source gives them in different places.

The target in this experiment is T1, LmxCLK1 (Leishmania mexicana, UniProt E9AMP2).
T1 sequence (E9AMP2 1-422): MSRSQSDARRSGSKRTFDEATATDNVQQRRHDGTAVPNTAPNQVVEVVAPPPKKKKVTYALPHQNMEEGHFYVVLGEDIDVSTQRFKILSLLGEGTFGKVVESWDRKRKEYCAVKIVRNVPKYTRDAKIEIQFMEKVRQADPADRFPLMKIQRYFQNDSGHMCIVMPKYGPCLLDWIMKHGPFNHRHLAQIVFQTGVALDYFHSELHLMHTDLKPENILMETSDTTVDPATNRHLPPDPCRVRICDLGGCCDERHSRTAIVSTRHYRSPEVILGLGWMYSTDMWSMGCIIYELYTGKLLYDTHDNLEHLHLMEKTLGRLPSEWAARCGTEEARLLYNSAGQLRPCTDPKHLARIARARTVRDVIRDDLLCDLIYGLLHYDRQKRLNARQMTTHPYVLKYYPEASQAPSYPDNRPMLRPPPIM
Description: biochemical. Format: binding.

Where [1] appears, read: DSF, 10 µM compound, 2 µM LmxCLK1, Run 1.
[2] abbreviates: DSF, 10 µM compound, 2 µM LmxCLK1, Run 2.
[3] abbreviates: DSF, 10 µM compound, 2 µM LmxCLK1, mean of two runs.
Where [4] appears, read: DSF, 10 µM compound, 2 µM LmxCLK1, Run 1, read-out: ΔTm Run 1.
[5] abbreviates: DSF, 10 µM compound, 2 µM LmxCLK1, Run 2, read-out: ΔTm Run 2.
Where [6] appears, read: DSF, 10 µM compound, 2 µM LmxCLK1, mean of two runs, read-out: ΔTm Average.

In the case of `CCn1c(N)c(C(=O)NC)c(=O)c2ccc(C#C[C@@](C)(O)COC)nc21` [SAR131675], the “ΔTm Run 1” value under setting [1] worked out at 0.0 °C. In addition, the “ΔTm Run 2” value under setting [2] was -0.1 °C. Moreover, the “ΔTm Average” value under setting [3] was 0.0 °C.

`CCn1c(=O)c(-c2cc[nH]n2)cc2c(C)nc(N)nc21` [SAR245409 (XL765)]: the “ΔTm Run 1” value under setting [1] was found to be 0.1 °C. Further, under setting [2], the “ΔTm Run 2” value is -0.2 °C. Moreover, the “ΔTm Average” value under setting [3] was 0.0 °C.

In the case of `Oc1ccc(-c2nc(-c3ccc(F)cc3)c(-c3ccncc3)[nH]2)cc1` [SB202190 (FHPI)], under setting [1], the “ΔTm Run 1” value amounted to 0.2 °C. The “ΔTm Run 2” value under setting [2] is 0.4 °C. Also, under setting [3], the “ΔTm Average” value is 0.3 °C.

In the case of `CN(C)CCOc1ccc(-c2nc(-c3ccncc3)c(-c3ccc4c(c3)CC/C4=N\O)[nH]2)cc1` [SB590885], the ΔTm (usually the change in melting temperature against a reference sample) at 10 µM under setting [4] was -0.1 °C, the ΔTm at 10 µM under setting [5] was -0.4 °C and the ΔTm at 10 µM under setting [6] was -0.2 °C.

`CN1CCC(CNc2ccc3ncc(-c4cccc(OC(F)(F)F)c4)n3n2)CC1` [SGI-1776 free base]: under setting [1], the “ΔTm Run 1” value is 0.7 °C. In addition, the “ΔTm Run 2” value under setting [2] came out at 0.5 °C. Under setting [3], the “ΔTm Average” value was 0.6 °C.

Take `Cn1cc(-c2ccc3nnc(Sc4ccc5ncccc5c4)n3n2)cn1` [SGX-523]: the thermal shift (ΔTm) at 10 µM runs as follows: under setting [4], -0.1 °C; under setting [5], -0.2 °C; under setting [6], -0.1 °C.

For `Oc1ccc(Nc2nc(-c3ccc(Cl)cc3)cs2)cc1` [SKI II], under setting [1], the “ΔTm Run 1” value was 0.1 °C. Besides, the “ΔTm Run 2” value under setting [2] was found to be 0.1 °C. Also, the “ΔTm Average” value under setting [3] came to 0.1 °C.

Turning to `N#C/C(=C(/N)Sc1ccc(N)cc1)c1ccccc1C(F)(F)F` [SL-327], the “ΔTm Run 1” value under setting [1] is -0.2 °C. In addition, the “ΔTm Run 2” value under setting [2] was -0.2 °C. In addition, the “ΔTm Average” value under setting [3] was -0.2 °C.

As for `O=C1NC(=O)/C(=C/c2cccc(C(F)(F)F)c2)S1` [SMI-4a], the “ΔTm Average” value is given as -0.2, the “ΔTm Run 1” value is given as -0.3 and the “ΔTm Run 2” value was -0.1.

`CC(C)(C)c1cnc(CSc2cnc(NC(=O)C3CCNCC3)s2)o1` [SNS-032 (BMS-387032)]: the “ΔTm Run 1” value under setting [1] turned out to be 0.2 °C. The “ΔTm Run 2” value under setting [2] is 0.0 °C. For the same compound, under setting [3], the “ΔTm Average” value amounted to 0.1 °C.

`O=C(Nc1cccc(Cl)c1)Nc1ncc(CCNc2ncnc3ccsc23)s1` [SNS-314 Mesylate]: the shift in melting temperature (ΔTm) at 10 µM reads like this: under setting [4], 3.6 °C; under setting [5], 8.3 °C; under setting [6], 5.9 °C.

Consider `Oc1c2ccccc2c2c3c(cccc13)N=N2` [SP600125], for which the shift in melting temperature (ΔTm) at 10 µM reads like this: under setting [4], 0.1 °C; under setting [5], -0.3 °C; under setting [6], -0.1 °C.

As to `COc1c(C)c(C(=O)c2ccc(N)c(C(=O)[O-])c2)n2ccccc12.[Na+]` [SSR128129E], the “ΔTm Average” value was -0.1, the “ΔTm Run 1” value is on record as -0.1 and the “ΔTm Run 2” value is on record as -0.1.

As to `CN1CCN(CCOc2cc(OC3CCOCC3)c3c(Nc4c(Cl)ccc5c4OCO5)ncnc3c2)CC1` [Saracatinib (AZD0530)], the “ΔTm Run 1” value under setting [1] was found to be 0.8 °C. Besides, under setting [2], the “ΔTm Run 2” value is 0.7 °C. In addition, under setting [3], the “ΔTm Average” value amounted to 0.7 °C.

As for `Cn1cnc2c(F)c(Nc3ccc(Br)cc3Cl)c(C(=O)NOCCO)cc21` [Selumetinib (AZD6244)], the thermal shift (ΔTm) at 10 µM is 0.3 °C under setting [4], 0.3 °C under setting [5] and 0.3 °C under setting [6].

Take `CNC(=O)c1cc(Oc2ccc(NC(=O)Nc3ccc(Cl)c(C(F)(F)F)c3)cc2)ccn1` [Sorafenib Tosylate]: the “ΔTm Run 1” value under setting [1] amounted to 0.3 °C. The ΔTm at 10 µM under setting [5] is 0.2 °C. Further, the “ΔTm Average” value under setting [3] was 0.3 °C.

`CNC(=O)c1cc(Oc2ccc(NC(=O)Nc3ccc(Cl)c(C(F)(F)F)c3)cc2)ccn1` [Sorafenib]: the “ΔTm Run 1” value under setting [1] was -0.3 °C. The “ΔTm Run 2” value under setting [2] was 0.2 °C. Under setting [3], the “ΔTm Average” value is -0.1 °C.

With `CN1CCN(c2nc(C3=C(c4c[nH]c5ccccc45)C(=O)NC3=O)c3ccccc3n2)CC1` [Sotrastaurin], the ΔTm at 10 µM runs as follows: under setting [4], 1.2 °C; under setting [5], 0.9 °C; under setting [6], 1 °C.

On to `CCN(CC)CCNC(=O)c1c(C)[nH]c(/C=C2\C(=O)Nc3ccc(F)cc32)c1C` [Sunitinib Malate], for which the ΔTm at 10 µM under setting [4] stood at 0.3 °C, the ΔTm at 10 µM under setting [5] was found to be 0.2 °C and the ΔTm at 10 µM under setting [6] stood at 0.2 °C.

For `CC(C)(O)CC(=O)NCCn1ccc2ncnc(Nc3ccc(Oc4cccc(C(F)(F)F)c4)c(Cl)c3)c21` [TAK-285], the ΔTm at 10 µM under setting [4] was -0.5 °C, the shift in melting temperature (ΔTm) at 10 µM under setting [5] is -0.2 °C and the ΔTm at 10 µM under setting [6] was -0.3 °C.

`N#Cc1c(Oc2ccc(F)c(NC(=O)Cc3cccc(C(F)(F)F)c3)c2)ccc2nc(NC(=O)C3CC3)sc12` [TAK-632]: under setting [1], the “ΔTm Run 1” value came to 0.2 °C. Further, the “ΔTm Run 2” value under setting [2] stood at 0.1 °C. In addition, under setting [3], the “ΔTm Average” value worked out at 0.1 °C.

`CCc1nc(-c2cccc(C)c2)c(-c2ccnc(NC(=O)c3ccccc3)c2)s1` [TAK-715]: the ΔTm at 10 µM by setting is: under setting [4], 0.5 °C; under setting [5], 0.8 °C; under setting [6], 0.7 °C.

Consider `Cn1c(=O)c(F)c(Nc2ccc(I)cc2F)c2c(=O)n(C[C@@H](O)CO)cnc21` [TAK-733], for which the ΔTm at 10 µM by setting is: under setting [4], 0.2 °C; under setting [5], -0.3 °C; under setting [6], -0.1 °C.

Take `COc1ccc(C(=O)Nc2sc3c(c2C(N)=O)CCCC3)cc1OC` [TCS 359]: under setting [1], the “ΔTm Run 1” value amounted to 0.0 °C. In addition, the “ΔTm Run 2” value under setting [2] was found to be 0.0 °C. In addition, under setting [3], the “ΔTm Average” value was 0.0 °C.

With `Nc1nc(N)c2nc(-c3cccc(O)c3)c(-c3cccc(O)c3)nc2n1` [TG100-115], the “ΔTm Average” value was 1.5 °C, the “ΔTm Run 1” value came out at 1.7 °C and the “ΔTm Run 2” value was 1.3 °C.

In the case of `Nc1nc(N)c2nc(-c3cccc(O)c3)cnc2n1` [TG100713], the “ΔTm Average” value is reported as -0.1, the ΔTm Run 1 worked out at 0.1 °C and the “ΔTm Run 2” value is -0.2.

Regarding `Cc1cnc(Nc2ccc(N3CCN(C)CC3)cc2)nc1Nc1cccc(S(=O)(=O)NC(C)(C)C)c1` [TG101209], the “ΔTm Run 1” value under setting [1] turned out to be 0.2 °C. The “ΔTm Run 2” value under setting [2] was -0.3 °C. The “ΔTm Average” value under setting [3] amounted to 0.0 °C.

Turning to `Cc1cnc(Nc2ccc(OCCN3CCCC3)cc2)nc1Nc1cccc(S(=O)(=O)NC(C)(C)C)c1` [TG101348 (SAR302503)], the “ΔTm Run 1” value under setting [1] is 0.2 °C. Also, under setting [2], the “ΔTm Run 2” value stood at 0.3 °C. Also, under setting [3], the “ΔTm Average” value is 0.3 °C.

As for `Cc1cc(C(C)Nc2ccccc2)c2nc(N3CCOCC3)cc(=O)n2c1` (stereo not drawn) [TGX-221], the “ΔTm Run 1” value under setting [1] came to 0.5 °C. Besides, the “ΔTm Run 2” value under setting [2] was 0.3 °C. Besides, the “ΔTm Average” value under setting [3] was found to be 0.4 °C.

With `Cc1[nH]c(/C=C2\C(=O)Nc3ccccc32)c(C)c1CCC(=O)O` [TSU-68 (SU6668)], the “ΔTm Run 1” value under setting [1] came out at 0.1 °C. Under setting [2], the “ΔTm Run 2” value is -0.1 °C. Besides, the “ΔTm Average” value under setting [3] worked out at 0.0 °C.

Consider `Nc1cccc(-c2cc3c(Oc4cccc(O)c4)ncnc3[nH]2)c1` [TWS119], for which the “ΔTm Run 1” value under setting [1] was 0.1 °C. In addition, under setting [2], the “ΔTm Run 2” value was found to be 0.2 °C. Also, the “ΔTm Average” value under setting [3] turned out to be 0.1 °C.

Regarding `COc1cc2c(N3CCN(C(=O)Nc4ccc(OC(C)C)cc4)CC3)ncnc2cc1OCCCN1CCCCC1` [Tandutinib (MLN518)], the “ΔTm Run 1” value under setting [1] is 0.1 °C. The “ΔTm Run 2” value under setting [2] was -0.1 °C. Further, under setting [3], the “ΔTm Average” value turned out to be 0.0 °C.

As for `CNC(=O)c1cc(COc2nnc(Nc3ccc(Cl)cc3)c3ccoc23)ccn1` [Telatinib], the ΔTm at 10 µM under setting [4] was -0.3 °C, the ΔTm at 10 µM under setting [5] is -0.5 °C and the ΔTm at 10 µM under setting [6] is -0.4 °C.

For `CO[C@H]1C[C@@H]2CC[C@@H](C)[C@@](O)(O2)C(=O)C(=O)N2CCCC[C@H]2C(=O)O[C@H]([C@H](C)C[C@@H]2CC[C@@H](OC(=O)C(C)(CO)CO)[C@H](OC)C2)CC(=O)[C@H](C)/C=C(\C)[C@@H](O)[C@@H](OC)C(=O)[C@H](C)C[C@H](C)/C=C/C=C/C=C/1C` [Temsirolimus (CCI-779)], under setting [1], the “ΔTm Run 1” value is -0.1 °C. Further, the “ΔTm Run 2” value under setting [2] was -0.3 °C. Also, the “ΔTm Average” value under setting [3] is -0.2 °C.

In the case of `COc1ccc2cc(-c3nc(-c4ccc([S+](C)[O-])cc4)[nH]c3-c3ccncc3)ccc2c1` (stereo not drawn) [Tie2 kinase inhibitor], the ΔTm Average is 0.1 °C, the ΔTm Run 1 was 0.1 °C and the ΔTm Run 2 is 0 °C.

For the compound `COc1cc2nccc(Oc3ccc(NC(=O)Nc4cc(C)on4)c(Cl)c3)c2cc1OC` [Tivozanib (AV-951)], the thermal shift (ΔTm) at 10 µM worked out at 0.2 °C under setting [4], 0 °C under setting [5] and 0.1 °C under setting [6].

Regarding `Nc1ccc(-c2ccc3ncc4ccc(=O)n(-c5cccc(C(F)(F)F)c5)c4c3c2)cn1` [Torin 2], the “ΔTm Run 1” value under setting [1] was -0.1 °C. Under setting [2], the “ΔTm Run 2” value is 0.0 °C. Under setting [3], the “ΔTm Average” value came out at 0.0 °C.

Turning to `CC(=O)Nc1cccc(-n2c(=O)n(C3CC3)c(=O)c3c(Nc4ccc(I)cc4F)n(C)c(=O)c(C)c32)c1` [Trametinib (GSK1120212)], the ΔTm at 10 µM reads like this: under setting [4], 0 °C; under setting [5], -0.5 °C; under setting [6], -0.2 °C.

As to `CC(C)(C)c1cc(C=C(C#N)C#N)cc(C(C)(C)C)c1O` [Tyrphostin 9], under setting [1], the “ΔTm Run 1” value was -0.3 °C. In addition, the “ΔTm Run 2” value under setting [2] is -0.3 °C. For the same compound, the “ΔTm Average” value under setting [3] was -0.3 °C.
